Earlier results on 1 compound are cited in patent US10898449B2, “Transdermal therapeutic system containing asenapine” (LTS LOHMANN Therapie-Systeme AG, priority 2016, dated 2021).

Data set [1] relates to patients. Conditions: human, in vivo.
For data set [2] the following is noted: sublingual administration, therapeutic doses.

In the case of `CN1C[C@H]2c3ccccc3Oc3ccc(Cl)cc3[C@@H]2C1` (relative stereo) [asenapine, (3aRS,12bRS)-rel-5-chloro-2,3,3a,12b-tetrahydro-2-methyl-1H-dibenz[2,3:6,7]oxepino[4,5-c]pyrrole], in data set [1], the “Somnolence and anxiety (very common), share of the patients” value was no less than 10%. In data set [2], the terminal disposition half-life result is recorded as “around 1 day”.
